Test results: patent US20220296629A1, “HUMAN HEAD AND NECK CANCER TREATMENT” (CARMEL HAIFA […] CORPORATION LTD., priority 2019, published 2022)

What was measured:
miR-193a = miR-193a expression levels in Fadu cells by quantitative real-time PCR; assay type: cell-based, Homo sapiens; conditions: 5 μM, 48 hours, U6 normalization, vs 0.01% DMSO control
Procedure: FIG. 8 includes a vertical bar graph showing Real-time analysis of miRNA expression patterns in Fadu Cells. The expression levels of miRNAs; hsa-mir193a were analysed using Quantitative real-time PCR, following 5-aza-2′ -deoxycytidine cell treatment. Data represented as average of three independent experiments conducted in triplicates (mean±SD) and U6 was used as normalization. Statistical significance determined by a two-tailed Student's t-test. Significance was determined as follows: ***P<0.01.
miRNA was isolated using mirVana™ miRNA Isolation Kit (Ambion®) according the manufacturer's protocol, the mirVana™ kit utilizes two sequential GFFs, since the small […]
The concentration and purity of miRNA was assessed using NanoDrop™ lite spectrophotometer (NanodropTechnologies, Willmington, Del., USA). miRNA expression profiling was performed using the TaqMan microRNA arrays system (Applied Biosystems) with specific TaqMan primers and probes for miR-193a. cDNA was generated using TaqMan microRNA assay using Primers for the mir-193a with FAM/MGB. […] Real time PCR was carried out with Rotor Gene 6000 Real-Time PCR Machine-Bosch-Bosch, results were analyzed with delta delta Ct (ΔΔCt) method using the rotor Gene 6000 Real-Time PCR software. […]
miRNA were isolated, quantified, profiled and cDNA was generated. […]

Fadu cells [1] = assay: Fadu xenograft tumor growth in athymic nude mice; assay type: in vivo; conditions: tumors harvested 21 days post treatment, P<0.0001
Procedure: FIG. 6 includes a graph presenting data from 16 athymic nude male mice which were subcutaneously injected with 1×10^6 Fadu cells. When the tumors reached a volume of 200 mm^3 the mice were divided into 2 groups of 8 mice each, with a similar dispersal of tumor volumes. Mice were injected once a week with intraperitoneal (IP) injection of either PBS×1 to the control group, or 1×10^10 vp AD-miR-193a, for 3 weeks. During the experiments, tumor volumes were measured twice a week using caliber meter. The results presented are the mean±SE. n=8 mice per experimental group.
FIGS. 7A-7B include vertical bar graphs showing the effect of miR-193a on final tumor weight (7A) and volume (7B). The results presented are the mean±SE. n=8 tumors per experimental group. Statistical significance for tumor weight determined by Mann-Whitney and for tumor volume by two-tailed Student's t-test (treatment vs. control). ***P<0.01.
Xenograft animal model were generated via injection of 1×10^6 Fadu cells in Matrigel subcutaneous in athymic nude mice immunodeficient mice. When the tumors reached a volume of 200 mm^3 the mice were divided into 2 groups of 8 mice each, with a similar dispersal of tumor volumes. […]
Tumors were measured by electronic calliper, once a week. 21 days post treatment the tumors were harvested and weight was measured.
The animals were sacrificed, and the tumors were removed, weighed and measured. […]

Fadu cells [2] = assay: XTT cell viability after transient transfection of Fadu cells; assay type: cell-based; conditions: 1 μg plasmid, 48 hours post transfection, viability reduced to
Procedure: FIG. 2 includes a vertical bar graph of cell viability following miR-193a-5p plasmid transfection. Squamous cancer cells Fadu were transfected with pCMV-miR-193a, or with p-CMV-GFP (MOC plasmid), 48 hours post transfection. cell viability was detected by XTT. Presented data are means±SD of three experiments, each conducted in eight replicates, and are expressed as percentages of the respective control. ***P<0.001(Dunnett's test).
FIG. 3 includes a vertical bar graph of cell viability following miR-193a-5p plasmid transfection time course experiment. Squamous cancer cells Fadu were transfected with miR-193a-5p or with MOC plasmid, 24 hours, 48 hours and 72 hours post transfection. cell viability was detected by XTT. Presented data are means±SD of three experiments, each conducted in eight replicates, and are expressed as percentages of the respective control. Statistical significance determined by a two-tailed student's t-test. Significance was determined as follows: *P<0.05, **P<0.01 and ***P<0.001.
Fadu Cells were seeded in a 96 well plate (3×10^4 cells/well). […]
At the end of treatment, cell viability was measured using XTT. The data presented are average of at least three independent experiments; 8 repeats each (means±SEM), and are expressed as percentage of the respective vehicle treated control. […]

Row | Molecule | Increase in miR-193a expression levels (miR-193a) [folds] | Final tumor volume vs control (Fadu cells [1]) | Final tumor weight vs control (Fadu cells [1]) | Cell viability (XTT), percentage of control (Fadu cells [2]; first experiment) | Cell viability (XTT), percentage of control (Fadu cells [2]; second and third experiment) [%]
1 | Nc1ncn([C@H]2C[C@H](O)[C@@H](CO)O2)c(=O)n1 [5-aza, 5-aza-2′ -deoxycytidine] | 132 | – | – | – | –
2 | miR-193a: Homo sapiens miR-193a, SEQ ID NO:1 UGGGUCUUUGCGGGCGAGAUGA; delivered as CMV plasmid or adenovirus AD-miR-193a (listed as Homo sapiens) | – | significantly reduced | significantly reduced | approximately 70% | ~40
